ChEMBL document CHEMBL4811240, “Discovery of N-substituted sulfamoylbenzamide derivatives as novel inhibitors of STAT3 signaling pathway based on Niclosamide” (Eur J Med Chem, 2021)
Activity calls are given as the source filed them. The calls are words filed in the database; no cut-off is given here.

Columns and labels:
SW480 [1] = test: Antiproliferative activity against human SW480 cells assessed as inhibition of cell viability at 10 uM after 48 hrs by MTT assay relative to control; type: functional
MDA-MB-231 [2] = test: Antiproliferative activity against human MDA-MB-231 cells assessed as inhibition of cell viability at 10 uM after 48 hrs by MTT assay relative to control; type: functional
HCT-116 [3] = test: Antiproliferative activity against human HCT116 cells assessed as inhibition of cell viability at 10 uM after 48 hrs by MTT assay relative to control; type: functional
MDA-MB-231 [4] = test: Antiproliferative activity against human MDA-MB-231 cells assessed as inhibition of cell viability after 48 hrs by MTT assay; type: functional, cell-based; conditions: MDA-MB-231, 48 h
SW480 [5] = test: Antiproliferative activity against human SW480 cells assessed as inhibition of cell viability after 48 hrs by MTT assay; type: functional, cell-based; conditions: SW480, 48 h
L3.6pl = test: Antiproliferative activity against human L3.6 cells assessed as inhibition of cell viability at 10 uM after 48 hrs by MTT assay relative to control; type: functional
HCT-116 [6] = test: Antiproliferative activity against human HCT-116 cells assessed as inhibition of cell viability after 48 hrs by MTT assay; type: functional, cell-based; conditions: HCT-116, 48 h
[7] = Lipophilicity, log P of the compound; type: physicochemical; conditions: octanol/water
[8] = biological target: Signal transducer and activator of transcription 3 (Homo sapiens) (UniProt P40763); test: Inhibition of STAT3 promoter activity in human MDA-MB-231 cells at 1 uM incubated for 24 hrs by dual luciferase reporter assay; type: cell-based
MDA-MB-231 [9] = test: Induction of apoptosis in human MDA-MB-231 cells assessed as apoptotic cells at 10 uM measured after 24 hrs by annexinV-FITC/propidium iodide staining based flow cytometry analysis (reference value: 2.49%); type: functional
MDA-MB-231 [10] = test: Inhibition of human MDA-MB-231 cells migration a 1000 nM after 24 hrs by crystal violet staining based transwell migration assay; type: functional, cell-based

Signal transducer and activator of transcription 3 (Homo sapiens), sequence (P40763 whole entry): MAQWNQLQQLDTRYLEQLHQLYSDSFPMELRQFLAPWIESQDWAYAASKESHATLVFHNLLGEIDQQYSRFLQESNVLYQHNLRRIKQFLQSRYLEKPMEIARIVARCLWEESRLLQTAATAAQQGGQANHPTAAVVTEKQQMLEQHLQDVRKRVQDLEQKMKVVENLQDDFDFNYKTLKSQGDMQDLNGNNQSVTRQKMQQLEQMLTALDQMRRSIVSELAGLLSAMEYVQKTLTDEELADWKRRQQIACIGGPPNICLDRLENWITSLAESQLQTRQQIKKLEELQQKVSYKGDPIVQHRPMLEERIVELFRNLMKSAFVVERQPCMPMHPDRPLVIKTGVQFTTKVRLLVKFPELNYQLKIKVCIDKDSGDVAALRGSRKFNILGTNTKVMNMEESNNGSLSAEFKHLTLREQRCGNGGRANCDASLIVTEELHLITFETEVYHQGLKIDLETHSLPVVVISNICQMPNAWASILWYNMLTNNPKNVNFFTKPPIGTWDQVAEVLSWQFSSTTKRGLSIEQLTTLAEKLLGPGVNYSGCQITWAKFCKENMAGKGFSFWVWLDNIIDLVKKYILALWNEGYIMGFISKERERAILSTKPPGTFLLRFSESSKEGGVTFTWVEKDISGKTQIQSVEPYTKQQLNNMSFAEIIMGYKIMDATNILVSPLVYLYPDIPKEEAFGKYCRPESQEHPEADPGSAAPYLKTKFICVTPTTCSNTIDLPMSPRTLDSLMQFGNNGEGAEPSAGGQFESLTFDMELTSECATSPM

Row | IC50 (MDA-MB-231 [4]) [µM] | IC50 (SW480 [5]) [µM] | IC50 (HCT-116 [6]) [µM] | logP [7] | inhibition [8] [%] | SMILES | inhibition at 10 µM (SW480 [1]) [%] | inhibition at 10 µM (MDA-MB-231 [2]) [%] | inhibition at 10 µM (HCT-116 [3]) [%] | inhibition at 10 µM (L3.6pl) [%] | Activity (MDA-MB-231 [9]) [%] | inhibition (MDA-MB-231 [10])
1 | > 20 | > 20 | > 20 | 1.77 | – | COc1ccccc1CNC(=O)c1ccc(Cl)c(S(N)(=O)=O)c1 | 42.8 | 35 | 50 | 17.3 | – | –
2 | 12.7 | > 20 | 10.7 | 0.79 | – | COc1cc(NC(=O)c2cccc(S(N)(=O)=O)c2)cc(OC)c1OC | 26.9 | 59.4 | 57.7 | 19.5 | – | –
3 | 0.8 | – | – | 3.17 | 88.2 | O=C(Nc1ccc([N+](=O)[O-])cc1Cl)c1cc(Cl)ccc1O [NICLOSAMIDE] | 76.8 | 91.5 | 73.8 | 66.2 | 19.91 | Active
4 | 14.3 | > 20 | 19.1 | 2.73 | – | NS(=O)(=O)c1cc(C(=O)Nc2ccc([N+](=O)[O-])cc2Cl)ccc1Cl | 38.2 | 56.3 | 49.5 | 12.3 | – | –
5 | 11.9 | > 20 | 17.2 | 1.19 | – | NS(=O)(=O)c1cccc(NC(=O)c2ccc(Cl)c(S(N)(=O)=O)c2)c1 | 34.3 | 52.8 | 52.2 | 12.1 | – | –
6 | > 20 | > 20 | 18.6 | 1.34 | – | COc1cccc(CNC(=O)c2ccc(Cl)c(S(N)(=O)=O)c2)c1 | 37.7 | 36.3 | 64.2 | 19.4 | – | –
